Data reported in US20230080252A1, “ANTICANCER ADJUVANT AND PHARMACEUTICAL COMPOSITION FOR TREATING ANTICANCER-AGENT-RESISTANT CANCER, AND KIT COMPRISING SAME” (DONG-A UNIVERSITY RESEARCH FOUNDATION FOR INDUSTRY-ACADEMY …, priority 2020, published 2023).

Assays:
[1] = system: A549 (human lung carcinoma) cells; test: DNA fiber analysis of replication forks; type: cell-based; conditions: unperturbed A549 cells; IdU and CldU 20 min each; control 0.36 μm/min
Method: The ratios of CldU to IdU were calculated from active replication forks. […] Single-strand DNA (ssDNA; blue) was labelled with ssDNA-specific antibodies. Percentages of stalled forks were calculated by dividing the number of red-only tracts (stalled forks) by the total number of red-only plus red-green tracts (stalled and restarted forks, respectively). Analyses were performed on a minimum of 200 individual DNA fibers. […] The recovery of S phase progression is presented as a percentage of EdU positive cells at 6 h after the release from HU treatment. In each experiment, >100 cells were randomly chosen to determine the percentage of EdU-positive cells. […] The ratio of CldU to IdU in terms of length was calculated from active replication forks (red-green). […]
(1) ATR-CHK1 pathway accounts for the central replication stress responses and once activated it helps the cell to survive and faithfully complete DNA replication under stress. Having shown that TTP is found to be implicated in the ATR-CHK1 activation, as in Example 1 above, we decided to examine the effect of TTP on the replication fork stability using DNA fiber analysis, the clearest read-out of replication stress which relies on the incorporation of nucleotide analogues. […]
(3) We next examined the involvement of TTP in stalled fork protection. […] We then analyzed the relative shortening of CldU fiber as indicative of fork degradation. […]

[2] = system: p-CHK1 (ATR-CHK1 pathway); test: CHK1 phosphorylation (immunoblot / immunostaining) after UV or HU; type: cell-based, human; conditions: inhibitor added after UV irradiation, fixed after 2 hours, anti-p-CHK1 immunostaining
Description: FIG. 1D is a quantification of the percentage of p-CHK1-positive cells from UV-treated data of FIG. 1C. […] In each experiment, >100 cells were randomly chosen to determine the percentage of p-CHK1-positive cells.
The two DNA damage response kinases ATR and ATM play key roles in the protection of genomic integrity from genotoxic stress by sensing a single-strand break and DSB (Double strand break), respectively. To identify the functions of TTP in the DNA damage response, we first analyzed the phosphorylation levels of CHK1 (p-CHK1) and CHK2 (p-CHK2) as readouts of ATR and ATM activity, respectively.
Then, we treated cells with HU, another CHK1 phosphorylation-triggering agent which depletes the deoxynucleoside triphosphate pool, thus inducing the RSR (Replication Stress Response).

Molecule | average fork velocity [1] [μm/min] | residual p-CHK1 signal in TTP-deficient cells [2]
siClaspin: siRNA (SEQ ID NO: 20) introduced into cells to make Claspin-deficient cells (AACCUUGCUUAGAGCUGAGUCUUCA; listed as RNA, chemistry not given here) | 0.22 | 
CNCc1ccc(-c2cc(-c3nc(-c4ccc(S(=O)(=O)C(C)C)cc4)cnc3N)on2)cc1 [VE-822] |  | vanished
